Measurements from a melting point compilation (Tetko et al.; mined from patent text by program, amines drawn as free bases though some values may be those of a salt).

SMILES	melting point
COC(=N)N1CCC(c2nn(C)c3cc(F)ccc23)CC1	132 to 135 °C
COC(=O)C=C1NCCOC1=O	76 to 79 °C
CN1Cc2c(-c3noc(CCl)n3)ncn2-c2cccc(Br)c2C1=O	242 to 244 °C
c1ccc(N=C2CCCCN2)c(CN2CCOCC2)c1	108 to 110 °C
CCC([O-])=C(C(=O)OC)N1C(=O)CC1[N+](CC)(CC)CC (stereo not given)	109 to 110 °C
CC1CC(C)CN(C(=O)C2Cc3ccccc3N2)C1 (stereo not given)	131 to 133 °C
COc1ccccc1N1Sc2ccccc2CC1=O	171 °C
CCCCCCCCCCCCN=C=O	100 to 103 °C
CCCCCCCCCCCCc1cc(C(=O)O)c(C)o1	70 to 73 °C
C=Cc1ccc(C(C#N)C#N)cc1	40 to 42 °C
CC1(C)SC2CC(=O)N2C1C#N (stereo not given)	73 to 75 °C
Cc1ccccc1Nc1nc(Cl)nc2c(C)cccc12	125 to 126 °C
C=C(Br)Cc1cccs1	69 to 71 °C
O=CNc1ccccc1CCc1ccccn1	78 to 81 °C
CCc1cc(=O)c(I)c(CC)[nH]1	225 to 227 °C
FC(F)(F)Cn1cc(C#Cc2cccc(OCC3CC3)c2)cn1	63 to 65 °C
Nc1ncnc2c1c(-c1ccc(Oc3ccccc3)cc1)cn2C1CCNC1 (stereo not given)	182 to 184 °C
CCOC(=O)c1sc(C)nc1OC(=S)N(C)C	87 to 90 °C
Cn1ncnc1COc1nc2c(cc1CC(C)(C)C)nnn2-c1ccccc1F	130 to 133 °C
COC(=O)CC(NCCCN(C)C)C(=O)O (stereo not given)	171 to 172 °C
N#CC(C(=O)c1ccc([N+](=O)[O-])cc1)=C1CCCCN1	182 °C
CC(C)CC1(CC(C)C)CCc2c(OCc3ccc4ccccc4n3)cccc2C1O (stereo not given)	144 to 146 °C
CC(=O)c1ccc(C#CCOC2CCC3C4CCC5CC(C)(O)CCC5(C)C4CCC23C)cc1 (stereo not given)	52 to 55 °C
O=Cc1ccccc1OCC(=O)NCCO[N+](=O)[O-]	99 to 101 °C
CC#Cc1ccccc1S(N)(=O)=O	147 to 149 °C

SMILES	melting point
c1ccc(-c2ccc3c(c2)sc2c4ccc(-c5ccccc5)cc4sc32)cc1	> 300 °C
N#CCCN(CCC#N)CCC#N	59 to 61 °C
Nc1ccc(Oc2ccc(Oc3ccc(N)c(O)c3)cc2)cc1O	> 220 °C
CN(c1ccccc1)c1ncccc1NC(=O)c1ccccc1F	84 to 86 °C
COC(=O)c1cc2nccnc2cc1N	180 to 182 °C
C#CCOc1cc(NNC(=S)C(C)(C)C)c(Cl)cc1Cl	126 to 128 °C
O=S(=O)(c1ccc(Oc2cccc(C(F)(F)F)c2)cc1)c1ccc(Oc2cccc(C(F)(F)F)c2)cc1	96.5 to 97.5 °C
Fc1ccc(Nc2ncnc3ccc(-n4cncn4)cc23)c(F)c1	> 250 °C
Cc1cc(OCCCCl)c(C)c(C)c1OCCCCl	143 °C
CC(C)(C)c1cc(N2C=NC(NC(=N)N)S2)cc(C(C)(C)C)c1O (stereo not given)	276 °C
O=C1Cc2c(ccc3ccccc23)C(c2ccccc2F)N1 (stereo not given)	259 to 261 °C
NS(=O)C12CC3CC(CC(C3)C1)C2 (stereo not given)	139 to 141 °C
COc1cc2cc(CO)cc(-c3ccnc(Cl)c3)c2cc1OC	115 to 118 °C
COc1cc2c(c(N(C(C)=O)C(C)=O)c1)CC(C)O2 (stereo not given)	56 to 57 °C
C=CCc1ccc2oc(C(=O)OCC)c(C)c2c1O	123 °C
CCOC(=O)C=C(C)C=CC=C(C)C=Cc1c(C)c(CC)c(OC)c(CC)c1C	153 to 154 °C
CC(=O)N1CCC(CC(=O)O)CC1	124 °C
CC(=O)SCC(CC(C)C)C(=O)NC(C)C(=O)O (stereo not given)	157 to 167 °C
Cc1sc(C=O)cc1Br	58 °C
Cc1ccc(C(=S)c2ccc(F)cc2)cc1	88 °C
CNC(=O)C1Cc2c(n(C)c3ccc(OC)cc23)C1 (stereo not given)	164 to 165 °C
CCCCOc1cc2c(cc1OC)C(c1ccc(OC)c(OC)c1)=NN=C(C)C2CC (stereo not given)	147 to 150 °C
O=Cc1cc(Cl)cc(C(=O)O)c1O	218 °C
COC(=O)c1ccc2[nH]cc(CC#N)c2c1	127 to 129 °C
O=C1CCCN1[C@@H]1c2cc(Cl)ccc2OCC[C@H]1O (relative stereo)	186 to 188 °C

Further lines, results first:

melting point	SMILES
174 to 175 °C	COc1ccc2c(c1)c1c(n2Cc2ccccc2)CCCC1=O
105 to 106 °C	N#Cc1cnc2cc(/C=C/CCCCCCCCCN3CCOCC3)ccc2c1Nc1ccc(Cl)cc1Cl
226 to 228 °C	Cc1nc(NCCc2ccccc2)sc1-c1ccnc(Nc2ccc(N3CCOCC3)cc2)n1
127 to 128 °C	CN(C(=O)c1cccc(S(=O)(=O)N(C)c2ccc(Br)cc2)c1)c1ccc(Cl)cc1F
186 °C	CCOC(=O)c1c(N2CCN(C(=O)c3cccs3)CC2)c2cc(Cl)cnc2n(Cc2cccc(F)c2)c1=O
59 to 60 °C	CCOC(=O)C1C(=O)C=C(OC(C)OCC)CC1c1ccc(C)cc1 (stereo not given)
216 to 218 °C	N#CC(C(=O)NCc1ccccc1)C(=O)c1nn(-c2ccc(F)cc2)c2c1CSc1ccc(Cl)cc1-2 (stereo not given)
88 °C	CCSC1=C(C#N)C(c2ccccc2)(c2ccccc2)C(=O)N1CCCNC(=O)OC(C)(C)C
92 to 93 °C	CC(=O)c1ccc2c(c1)C=CC(=O)CO2
142 to 144 °C	O=C(O)C=Cc1ccc(NC(=O)CCCCCNC(=O)OCc2ccccc2)cc1
80 to 85 °C	C=CCc1c(OCC(=O)O)ccc2c(CCc3nc(-c4ccc(Cl)cc4Cl)oc3C(C)C)noc12
53 to 57 °C	COC(=O)COC(=O)c1ccc(OCC(=O)OC)cc1
268 to 269 °C	COc1ccc2c(c1)C(=O)c1nc3ccccc3c(=O)n1-2
> 295 °C	CCOC(=O)C(=O)c1c[nH]c2c1ccc1c3ccccc3[nH]c12
214 to 215 °C	N#CCCNC(=O)c1cccc(-c2cccn3nc(Nc4cccc(C(F)(F)F)c4)nc23)c1
279 to 281 °C	CCn1cc(C(=O)O)c(=O)c2cc(F)c(Cl)cc21
240 to 241 °C	CCC(CC)Cn1c(=O)c(=O)[nH]c2cc([N+](=O)[O-])c(-n3cccc3C(=O)OC)cc21
225 to 227 °C	O=C(c1cc(-c2ccccc2)c(=O)n2c1-c1sccc1C2)N1CCOCC1
99 to 120 °C	O=c1ccc2ccc(OCCCN3CCC(C(O)(c4ccc(F)cc4)c4ccc(F)cc4)CC3)cc2o1
120 to 122 °C	CCc1nn(CCO)c(CC)c1Oc1cc(F)cc(-n2cccn2)c1
210 to 220 °C	CC1CC2C3CCC4=CC(=O)C=CC4(C)C3=CCC2(C)C1C(=O)CN1CCN(c2cc(NC34CC5CC(CC(C5)C3)C4)nc(NC34CC5CC(CC(C5)C3)C4)n2)CC1 (stereo not given)
290 to 291 °C	Cc1nc2c([nH]1)N(Cc1ccc(Cl)cc1)C1=NC(C)CN1C2=O (stereo not given)
123 to 126 °C	O=C(O)CC(NS(=O)(=O)c1ccc2ccccc2c1)c1ccccc1 (stereo not given)
106 to 108 °C	COC(=O)C(C)c1ccc(-c2ccccc2)c(O)c1 (stereo not given)
123 to 126 °C	CN(C)CCC1=Cc2ccc(OCc3ccc(-c4ccccc4)cc3)cc2CC1

melting point	SMILES
197 to 198 °C	Cc1cc(C)cc(C(=O)c2c(C(C)C)c(=O)[nH]c(=O)n2Cc2ccnc(Cl)n2)c1
96 to 105 °C	CC(C)C[C@H](NC(=O)C(S)[C@@H](N)Cc1ccccc1)C(=O)O (stereo not given in full)
206 to 207 °C	O=C(NCCc1ccc(O)cc1)c1ccc2n1Cc1ccccc1N(C(=O)COc1ccc(Cl)cc1)C2
210 to 211 °C	Nc1cc(C(=O)O)cc(SCc2ccccn2)c1-c1ccccc1
96 to 98 °C	CNc1cc(Br)cc(Sc2ccc([N+](=O)[O-])cc2)c1
180 to 183 °C	COCCOc1cc2ncnc(Nc3ccc(C)c(OC(C)=O)c3)c2cc1OC
236 to 238 °C	O=c1[nH]nc2n1-c1ccc(Cl)cc1C(c1ccccc1F)CC2 (stereo not given)
219 to 221 °C	O=C(Cn1c(=O)n(S(=O)(=O)c2ccc(Cl)cc2)c(=O)c2ccc(Cl)cc21)Nc1ccc(C(=O)O)cc1
197 to 199 °C	O=C(O)COc1ccc(C2=CC(=O)CC(c3ccccc3)C2)c(Cl)c1Cl (stereo not given)
173 °C	CN1CCN(CC(=O)Nc2ccc3c(c2)C(=O)c2cc(NC(=O)CN4CCN(C)CC4)ccc2C3=O)CC1
220 to 224 °C	N#Cc1c(N2CCCN(c3ccccn3)CC2)cc[nH]c1=S
135 to 139 °C	CC1(C)CN(c2ncc(C(=O)N(c3cccc(C(F)(F)F)c3)C3CCCC3)c(N)n2)C(=O)N1
162 to 164 °C	COc1cc2c(cc1CCCCN(C)C)[nH]c1cc(-c3ccccc3Cl)c3c(c12)C(=O)NC3=O
257 to 258 °C	CNc1nccc(Oc2ccc(NC(=O)Nc3ccc(CN4CCN(C(C)(C)C)CC4)c(C(F)(F)F)c3)cc2)n1
295 °C	NS(=O)(=O)c1ccc(C2CCN(c3ccncc3)CC2)cc1
> 230 °C	CCOc1ccc(C(=O)NCCc2ccc(S(=O)(=O)NC(=O)c3ccc(C(=O)NCC(=O)O)nc3)cc2)cc1OCC
153 to 154 °C	CC(C)(Oc1ccc(CCC(=O)c2ccc(-c3ccc(C(F)(F)F)cc3)s2)c(Cl)c1Cl)C(=O)O
262 °C	CCc1ccccc1NC=C1C(=O)N(c2cccc(-c3nnn[nH]3)c2)N=C1C
80 °C	COC(=O)CCC#Cc1cc(Cl)ccc1NS(=O)(=O)c1ccc(C(F)(F)F)cc1
119 to 120 °C	CCOP(=O)(CC(=O)Nc1c(C(C)C)cccc1C(C)C)OCC
78 to 80 °C	CCOC(=O)C(Cc1ccc(OCCN2CCC(C)(C)c3cc(C(=NOC)c4ccccc4)ccc32)cc1)Nc1ccccc1C(=O)c1ccccc1 (stereo not given)
131 to 134 °C	C=C(C)COc1ccc2c(=O)c(C)c(-c3ccccc3)oc2c1C(=O)C=Cc1cccc(OC)c1
154 to 157 °C	N#Cc1ccc(C(=O)CNc2ccc(Br)cc2)cc1
149 to 150 °C	CCOC(=O)CCCn1c(Nc2ccc(Cl)cc2)nc2c(Cl)ccc(C(CC)CC)c21
229 to 231 °C	CCc1nc2c(N)nc3cc(-c4cccnc4)ccc3c2n1CC1CCN(C(=O)OC(C)(C)C)CC1
